According to patent publication US20150105252A1, “SUBSTITUTED PYRAZOLES AS HERBICIDES” (E I DU PONT DE NEMOURS AND COMPANY, priority 2013, published 2015):

Tests used:
pigweed [1] = experiment: Test A preemergence; assay type: in vivo, Amaranthus retroflexus
Outline: (§1)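 After sowing in a sand–loam mix, pots received compound preemergence by directed soil spray, or postemergence once plants reached the one- to two-leaf stage (2–10 cm). Formulation contained surfactant in a non-phytotoxic solvent. Injury was scored visually after ~10 greenhouse days, 0–100 scale.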

velvetleaf = experiment: Test A preemergence; assay type: in vivo, Abutilon theophrasti
Outline: as §1

barnyardgrass = experiment: Test B flood; assay type: in vivo, Echinochloa crus-galli; conditions: 250 g ai/ha, visual rating on 0 to 100 scale (0 no effect, 100 complete control), 13 to 15 days
Outline: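 2-leaf plants; pots flooded 3 cm over soil; compound added to paddy water, depth kept constant. Greenhouse 13–15 d. Visual rating vs controls, 0–100 scale (100 = complete control); dash = no result.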

galium = experiment: Test C preemergence; assay type: in vivo, Galium aparine
Outline: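 Pre- and postemergence greenhouse screen; vehicle was a non-phytotoxic solvent mix with surfactant. Preemergence: treatment applied right after sowing into loam and sand. Postemergence: treated at 1–4 leaves. Visual rating at 13–15 days, 100 = complete control.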

wheat = experiment: Test C postemergence; assay type: in vivo, Triticum aestivum; conditions: for Plant response rating (scale of 0 to 100 where 0 is no effect and 100 is complete control), Wheat: Postemergence, 31 g ai/ha, visually evaluated after 13 to 15 days; for Wheat plant response rating / Plant response rating, Wheat: postemergence; for Wheat plant response rating: scale 0 to 100
Source text: (§2) Seeds of plant species selected from blackgrass (Alopecurus myosuroides), ryegrass, Italian (Italian ryegrass, Lolium multiflorum), wheat (winter wheat, Triticum aestivum), galium (catchweed bedstraw, Galium aparine), corn (Zea mays), crabgrass, large (large crabgrass, Digitaria sanguinalis), foxtail, giant (giant foxtail, Setaria faberii), johnsongrass (Sorghum halepense), lambsquarters (Chenopodium album), morningglory (Ipomoea coccinea), nutsedge, yellow (yellow nutsedge, Cyperus esculentus), pigweed (redroot pigweed, Amaranthus retroflexus), ragweed (common ragweed, Ambrosia elation), soybean (Glycine max), barnyardgrass (Echinochloa crus-galli), oilseed rape (Brassica napus), waterhemp (common waterhemp, Amaranthus rudis), oat, wild (wild oat, Avena fatua), kochia (Kochia scoparia), Surinam grass (Brachiaria decumbens), foxtail, green (green foxtail, Setaria viridis), goosegrass (Eleusine indica), bromegrass, downy (downy bromegrass, Bromus tectorum), nightshade (eastern black nightshade, Solanum ptycanthum), cocklebur (common cocklebur, Xanthium strumarium), cupgrass, woolly (woolly cupgrass, Eriochloa villosa), bermudagrass (Cynodon dactylon), sunflower, (common oilseed sunflower, Helianthus annuus), Russian thistle (Salsola kali), and velvetleaf (Abutilon theophrasti) were planted into a blend of loam soil and sand and treated preemergence with test chemicals formulated in a non-phytotoxic solvent mixture which included a surfactant.
(§3) At the same time, plants selected from these crop and weed species and also chickweed (common chickweed, Stellaria media), canarygrass (littleseed canarygrass, Phalaris minor), and deadnettle (henbit deadnettle, Lamium amplexicaule), were planted in pots containing Redi-Earth® planting medium (Scotts Company, 14111 Scottslawn Road, Marysville, Ohio 43041) comprising spaghnum peat moss, vermiculite, wetting agent and starter nutrients and treated with postemergence applications of test chemicals formulated in the same manner. Plants ranged in height from 2 to 18 cm (1- to 4-leaf stage) for postemergence treatments. Treated plants and controls were maintained in a greenhouse for 13 to 15 days, after which time all species were compared to controls and visually evaluated. Plant response ratings, summarized in Table C, are based on a scale of 0 to 100 where 0 is no effect and 100 is complete control. A dash (-) response means no test result.

corn = experiment: Test C postemergence; assay type: in vivo, Zea mays; conditions: for Plant response rating (scale of 0 to 100 where 0 is no effect and 100 is complete control), Corn: Postemergence, 31 g ai/ha, visually evaluated after 13 to 15 days; for Corn plant response rating / Plant response rating, Corn: postemergence; for Corn plant response rating: 62 g ai/ha, scale 0 to 100
Source text: as §2, §3

johnsongrass = experiment: Test C postemergence; assay type: in vivo, Sorghum halepense; conditions: for Plant response rating (scale of 0 to 100 where 0 is no effect and 100 is complete control), Johnsongrass: Postemergence, 31 g ai/ha, visually evaluated after 13 to 15 days; for Johnsongrass plant response rating / Plant response rating, Johnsongrass: postemergence; for Johnsongrass plant response rating: 62 g ai/ha, scale 0 to 100
Source text: as §2, §3

pigweed [2] = experiment: Test C postemergence; assay type: in vivo, Amaranthus retroflexus; conditions: for Plant response rating (scale of 0 to 100 where 0 is no effect and 100 is complete control), Pigweed: Postemergence, 31 g ai/ha, visually evaluated after 13 to 15 days; for Pigweed plant response rating / Plant response rating, Pigweed: postemergence; for Pigweed plant response rating: 62 g ai/ha, scale 0 to 100
Source text: as §2, §3

ragweed = experiment: Test C postemergence; assay type: in vivo, Ambrosia elation; conditions: for Plant response rating (scale of 0 to 100 where 0 is no effect and 100 is complete control), Ragweed: Postemergence, 31 g ai/ha, visually evaluated after 13 to 15 days; for Ragweed plant response rating / Plant response rating, Ragweed: postemergence; for Ragweed plant response rating: 62 g ai/ha, scale 0 to 100
Source text: as §2, §3

soybean = experiment: Test C postemergence; assay type: in vivo, Glycine max; conditions: for Plant response rating (scale of 0 to 100 where 0 is no effect and 100 is complete control), Soybean: Postemergence, 31 g ai/ha, visually evaluated after 13 to 15 days; for Soybean plant response rating / Plant response rating, Soybean: postemergence
Source text: as §2, §3

chickweed = experiment: Test C postemergence; assay type: in vivo, Stellaria media; conditions: for Plant response rating (scale of 0 to 100 where 0 is no effect and 100 is complete control), Chickweed: Postemergence, 31 g ai/ha, visually evaluated after 13 to 15 days; for Chickweed plant response rating / Plant response rating, Chickweed: postemergence; for Chickweed plant response rating: 62 g ai/ha, scale 0 to 100
Source text: as §2, §3

[3] = Preemergence, 500 g ai/ha, 0 to 100 scale, 0 no effect, 100 complete control
[4] = preemergence, 125 g ai/ha, visual injury, 0 to 100 scale, approx. 10 days
[5] = 250 g ai/ha, scale 0 to 100 (0 no effect, 100 complete control)
[6] = 125 g ai/ha, scale 0 to 100, 0 no effect, 100 complete control
[7] = preemergence, 500 g ai/ha, visual injury after approx. 10 days, 0 to 100 scale (0 no effect, 100 complete control)

Compound | Pigweed plant response rating (pigweed [1]; [4]) | Velvetleaf plant response rating (velvetleaf; [4]) | Plant response rating, Barnyardgrass (barnyardgrass) | Plant response rating (scale of 0 to 100 where 0 is no effect and 100 is complete control), Wheat (wheat) | Wheat plant response rating (wheat; 62 g ai/ha) | Plant response rating, Wheat (wheat; [5]) | Plant response rating (scale of 0 to 100 where 0 is no effect and 100 is complete control), Corn (corn) | Corn plant response rating (corn) | Plant response rating, Corn (corn; [5]) | Plant response rating, Corn (corn; [6]) | Plant response rating (scale of 0 to 100 where 0 is no effect and 100 is complete control), Johnsongrass (johnsongrass) | Johnsongrass plant response rating (johnsongrass) | Plant response rating, Johnsongrass (johnsongrass; [5]) | Plant response rating, Johnsongrass (johnsongrass; [6]) | Plant response rating (scale of 0 to 100 where 0 is no effect and 100 is complete control), Pigweed (pigweed [2]) | Pigweed plant response rating (pigweed [2]) | Plant response rating, Pigweed (pigweed [2]; [5]) | Plant response rating, Pigweed (pigweed [2]; [6]) | Plant response rating (scale of 0 to 100 where 0 is no effect and 100 is complete control), Ragweed (ragweed) | Ragweed plant response rating (ragweed) | further results
CCc1cc(C(=O)NCC(F)(F)F)nn1Cc1ccnc(C(F)(F)F)c1 [Compound 78, 5-ethyl-N-(2,2,2-trifluoroethyl)-1-[[(2-trifluoromethyl)-4-pyridinyl]methyl]-1H-pyrazole-3-carboxamide] | 100 | 100 | 50 | 5 | 10 | 35 | 10 | 15 | 80 | 25 | 0 | 5 | 75 | 55 | 40 | 75 | 98 | 90 | 35 | 75 | Pigweed plant response rating (pigweed [1]; [3]): 100; Velvetleaf plant response rating (velvetleaf; [3]): 100; Plant response rating (scale of 0 to 100), Galium (galium; Preemergence, 250 g ai/ha): 100; Galium plant response rating (galium; preemergence, 31 g ai/ha, visual rating, scale 0 to 100 (0 no effect, 100 complete control), 13 to 15 days): 85; Plant response rating, Galium (galium; preemergence, 62 g ai/ha, 13 to 15 days, scale 0 to 100, 0 = no effect, 100 = complete control): 100; Galium plant response rating (galium; preemergence, 125 g ai/ha, scale 0 to 100, 0 is no effect, 100 is complete control): 100; Plant response rating, Wheat (wheat; [6]): 10; Plant response rating, Ragweed (ragweed; [5]): 95; Plant response rating, Ragweed (ragweed; [6]): 85; Plant response rating (scale of 0 to 100 where 0 is no effect and 100 is complete control), Soybean (soybean): 50; Soybean plant response rating (soybean; 62 g ai/ha, scale 0 to 100): 80; Plant response rating, Soybean (soybean; [5]): 85; Plant response rating, Soybean (soybean; [6]): 80; Plant response rating (scale of 0 to 100 where 0 is no effect and 100 is complete control), Chickweed (chickweed): 65; Chickweed plant response rating (chickweed): 80; Plant response rating, Chickweed (chickweed; [5]): 85; Plant response rating, Chickweed (chickweed; [6]): 80
CCCc1cc(C(=O)NCC(F)(F)F)nn1Cc1cc(C(F)(F)F)nn1C [Compound 138] | 100 | 100 | 50 | 5 | 5 | 15 | 15 | 15 | 30 | 15 | 10 | 10 | 20 | 10 | 75 | 85 | 85 | 80 | 10 | 30 | Pigweed plant response rating (pigweed [1]; [7]): 100; Velvetleaf plant response rating (velvetleaf; [7]): 100; Wheat plant response rating (wheat): 15; Plant response rating, Ragweed (ragweed; [5]): 60; Plant response rating, Ragweed (ragweed; [6]): 50; Plant response rating (scale of 0 to 100 where 0 is no effect and 100 is complete control), Soybean (soybean): 65; Soybean plant response rating (soybean; 62 g ai/ha, scale 0 to 100): 75; Plant response rating, Soybean (soybean; [5]): 65; Soybean plant response rating (soybean; [6]): 90; Plant response rating (scale of 0 to 100 where 0 is no effect and 100 is complete control), Chickweed (chickweed): 70; Chickweed plant response rating (chickweed): 80; Plant response rating, Chickweed (chickweed; [5]): 90; Plant response rating, Chickweed (chickweed; [6]): 80
